Source: patent US11566007B2, “Ras inhibitors” (Revolution Medicines, Inc., priority 2019, dated 2023)
Like-named read-outs stand apart in the source and are kept apart here.

Tests used:
[1] = tested on: NCI-H358 cells (K-Ras G12C); experiment: Potency assay: pERK in NCI-H358 cells; format: cell-based, human; conditions: Homo sapiens, NCI-H358; H358 KRAS G12C; read-out: pERK EC50
In short: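 pERK decrease read by AlphaLISA SureFire p-ERK1/2 or In-Cell Western after 4 h compound exposure at 37 °C, 5% CO2.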

NCI-H358 (K-Ras G12C) = experiment: CellTiter-Glo cell viability assay, NCI-H358; format: cell-based, human; conditions: Homo sapiens, NCI-H358, 120 h, NCI-H358, 5-day treatment; class symbols; read-out: Additional H358 Cell Viability assay data (K-Ras G12C, IC50)
In short: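 Cells seeded, compound added directly, 5-day exposure. Plates to RT ~30 min, CellTiter-Glo luminescence read. Normalized to DMSO avg (x100); 4-parameter logistic fit.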

K-Ras G12C = K-Ras G12C (Homo sapiens (Human), UniProt P01116+P62937, G12C); experiment: Ras-Raf (BRAF RBD) disruption / FRET / MOA assay, KRAS G12C; format: biochemical; conditions: KRAS G12C, Ras-Raf disruption/FRET/MOA assay
In short: (§1)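 A 10-point, 3-fold dilution series topping at 30 μM final was incubated 3 h at 25° C with the Ras/cyclophilin A/BRAF RBD mixture.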

K-Ras G13C = K-Ras G13C (Homo sapiens (Human), UniProt P01116+P62937, G13C); experiment: Ras-Raf (BRAF RBD) disruption / FRET / MOA assay, KRAS G13C; format: biochemical; conditions: KRAS G13C, Ras-Raf disruption/FRET/MOA assay
In short: as §1

KRAS G12S = KRAS G12S (Homo sapiens (Human), UniProt P01116+P62937, G12S); experiment: Ras-Raf (BRAF RBD) disruption / FRET / MOA assay, KRAS G12S; format: biochemical; conditions: class symbols
In short: as §1

KRAS G12D = KRAS G12D (Homo sapiens (Human), UniProt P01116+P62937, G12D); experiment: Ras-Raf (BRAF RBD) disruption / FRET / MOA assay, KRAS G12D; format: biochemical; conditions: class symbols
In short: as §1

KRAS G12V = KRAS G12V (Homo sapiens (Human), UniProt P01116+P62937, G12V); experiment: Ras-Raf (BRAF RBD) disruption / FRET / MOA assay, KRAS G12V; format: biochemical
In short: as §1

KRAS WT = KRAS WT (Homo sapiens (Human), UniProt P01116+P62937); experiment: Ras-Raf (BRAF RBD) disruption / FRET / MOA assay, KRAS WT; format: biochemical
In short: as §1

KRAS G13D = KRAS G13D (Homo sapiens (Human), UniProt P01116+P62937, G13D); experiment: Ras-Raf (BRAF RBD) disruption / FRET / MOA assay, KRAS G13D; format: biochemical
In short: as §1

NRAS G12C = NRAS G12C (Homo sapiens (Human), UniProt P01111+P62937, G12C); experiment: Ras-Raf (BRAF RBD) disruption / FRET / MOA assay, NRAS G12C; format: biochemical
In short: as §1

[2] = read-out: IC50* KRAS G12C FRET data
[3] = read-out: IC50* KRAS G13C FRET data
[4] = Ras-Raf disruption/FRET/MOA assay, read-out: KRAS G12S FRET data IC50
[5] = Ras-Raf disruption/FRET/MOA assay, read-out: KRAS G12D FRET data IC50
[6] = read-out: IC50* KRAS G12V FRET data
[7] = read-out: IC50* KRAS WT FRET data
[8] = read-out: IC50* KRAS G13D FRET data
[9] = read-out: IC50* NRAS G12C FRET data

Chain of NRAS G12C (P01111 whole entry G12C): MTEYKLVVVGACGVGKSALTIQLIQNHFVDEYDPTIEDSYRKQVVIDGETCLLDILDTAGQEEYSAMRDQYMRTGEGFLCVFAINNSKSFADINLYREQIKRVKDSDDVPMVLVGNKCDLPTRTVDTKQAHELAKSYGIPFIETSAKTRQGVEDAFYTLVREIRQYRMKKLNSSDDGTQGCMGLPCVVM
Chain of NRAS G12C (P62937 whole entry): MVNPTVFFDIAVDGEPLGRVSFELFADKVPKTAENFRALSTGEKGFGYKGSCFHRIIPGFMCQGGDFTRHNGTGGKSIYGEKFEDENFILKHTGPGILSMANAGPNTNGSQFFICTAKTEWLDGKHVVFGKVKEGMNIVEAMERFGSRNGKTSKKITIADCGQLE
Chain of KRAS G12S (P01116-2 other isoform, or with tags, fused parts or gaps G12S): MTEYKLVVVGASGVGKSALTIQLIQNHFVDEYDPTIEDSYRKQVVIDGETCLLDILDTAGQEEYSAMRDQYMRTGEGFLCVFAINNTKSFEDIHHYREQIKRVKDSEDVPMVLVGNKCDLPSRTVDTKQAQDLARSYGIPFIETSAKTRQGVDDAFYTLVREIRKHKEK
Chain of KRAS G12S (P62937 whole entry): as the sequence (P62937 whole entry) above
Chain of KRAS G12V (P01116-2 other isoform, or with tags, fused parts or gaps G12V): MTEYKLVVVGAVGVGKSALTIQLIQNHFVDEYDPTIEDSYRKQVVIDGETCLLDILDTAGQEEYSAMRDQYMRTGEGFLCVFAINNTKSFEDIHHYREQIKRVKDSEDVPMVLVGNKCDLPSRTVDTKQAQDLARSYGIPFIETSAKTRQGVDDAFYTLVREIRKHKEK
Chain of KRAS G12V (P62937 whole entry): as the sequence (P62937 whole entry) above
Chain of KRAS G12D (P01116-2 other isoform, or with tags, fused parts or gaps G12D): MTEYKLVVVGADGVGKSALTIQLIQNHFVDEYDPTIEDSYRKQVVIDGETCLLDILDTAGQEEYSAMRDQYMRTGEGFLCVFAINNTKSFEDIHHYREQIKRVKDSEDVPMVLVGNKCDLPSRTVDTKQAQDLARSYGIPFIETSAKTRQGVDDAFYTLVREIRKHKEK
Chain of KRAS G12D (P62937 whole entry): as the sequence (P62937 whole entry) above
Chain of K-Ras G13C (P01116-2 other isoform, or with tags, fused parts or gaps G13C): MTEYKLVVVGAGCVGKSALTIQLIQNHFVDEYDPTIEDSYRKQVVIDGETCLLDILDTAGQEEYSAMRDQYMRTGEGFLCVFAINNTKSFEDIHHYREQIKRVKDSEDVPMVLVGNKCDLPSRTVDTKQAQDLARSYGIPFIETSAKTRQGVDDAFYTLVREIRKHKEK
Chain of K-Ras G13C (P62937 whole entry): as the sequence (P62937 whole entry) above
Chain of KRAS G13D (P01116-2 other isoform, or with tags, fused parts or gaps G13D): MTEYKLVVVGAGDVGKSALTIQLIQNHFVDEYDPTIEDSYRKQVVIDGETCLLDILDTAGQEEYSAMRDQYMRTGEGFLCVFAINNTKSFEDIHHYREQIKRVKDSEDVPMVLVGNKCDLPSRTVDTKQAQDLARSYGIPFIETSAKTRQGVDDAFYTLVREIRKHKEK
Chain of KRAS G13D (P62937 whole entry): as the sequence (P62937 whole entry) above
Chain of K-Ras G12C (P01116-2 other isoform, or with tags, fused parts or gaps G12C): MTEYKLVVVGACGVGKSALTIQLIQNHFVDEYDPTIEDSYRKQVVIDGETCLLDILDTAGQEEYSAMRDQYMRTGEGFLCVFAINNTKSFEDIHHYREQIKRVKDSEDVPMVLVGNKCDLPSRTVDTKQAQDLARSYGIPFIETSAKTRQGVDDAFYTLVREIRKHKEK
Chain of K-Ras G12C (P62937 whole entry): as the sequence (P62937 whole entry) above
Chain of KRAS WT (P01116-2 other isoform, or with tags, fused parts or gaps): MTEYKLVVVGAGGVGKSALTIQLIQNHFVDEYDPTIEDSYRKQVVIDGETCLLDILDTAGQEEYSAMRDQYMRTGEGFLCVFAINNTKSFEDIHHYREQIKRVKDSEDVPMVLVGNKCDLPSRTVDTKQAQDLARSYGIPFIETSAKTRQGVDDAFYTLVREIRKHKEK
Chain of KRAS WT (P62937 whole entry): as the sequence (P62937 whole entry) above

| SMILES | EC50 [1] | IC50 (NCI-H358 (K-Ras G12C)) | IC50 (K-Ras G12C; IC50* KRAS G12C FRET data) | IC50 (K-Ras G13C; IC50* KRAS G13C FRET data) | IC50 (KRAS G12S; KRAS G12S FRET data IC50, Ras-Raf disruption/FRET/MOA assay) | IC50 (KRAS G12D; KRAS G12D FRET data IC50, Ras-Raf disruption/FRET/MOA assay) | IC50 (KRAS G12V; IC50* KRAS G12V FRET data) | IC50 (KRAS WT; IC50* KRAS WT FRET data) | IC50 (KRAS G13D; IC50* KRAS G13D FRET data) | IC50 (NRAS G12C; IC50* NRAS G12C FRET data) | IC50 (K-Ras G12C; [2]) | IC50 (K-Ras G13C; [3]) | IC50 (KRAS G12S; [4]) | IC50 (KRAS G12D; [5]) | IC50 (KRAS G12V; [6]) | IC50 (KRAS WT; [7]) | IC50 (KRAS G13D; [8]) | IC50 (NRAS G12C; [9]) |
| --- | --- | --- | --- | --- | --- | --- | --- | --- | --- | --- | --- | --- | --- | --- | --- | --- | --- | --- |
| CCn1c(-c2cccnc2[C@H](C)OC)c2c3cc(ccc31)-c1cc(O)cc(c1)C[C@H](NC(=O)[C@H](C(C)C)N(C)C(=O)[C@H]1CCN(S(=O)(=O)C=C(C)C)C1)C(=O)N1CCC[C@H](N1)C(=O)OCC(C)(C)C2 (atropisomer, axis not shown) [Example A305] | < 5 µM | 0.01 to 0.1 µM | 0.01 to 0.1 µM | 0.01 to 0.1 µM | 0.1 to 1 µM | 1 to 10 µM | 0.01 to 0.1 µM | 0.1 to 1 µM | 0.1 to 1 µM | 0.01 to 0.1 µM |  |  |  |  |  |  |  |  |
| C/C=C(\C)S(=O)(=O)N1CC[C@H](C(=O)N(C)[C@H](C(=O)N[C@H]2Cc3cc(O)cc(c3)-c3ccc4c(c3)c(c(-c3cccnc3[C@H](C)OC)n4CC)CC(C)(C)COC(=O)[C@@H]3CCCN(N3)C2=O)C(C)C)C1 (atropisomer, axis not shown) [Example A306] | < 5 µM | 0.01 to 0.1 µM |  |  |  |  |  |  |  |  | 0.1 to 1 µM | 0.01 to 0.1 µM | 0.1 to 1 µM | 1 to 10 µM | 0.1 to 1 µM | 0.1 to 1 µM | 0.1 to 1 µM | 0.1 to 1 µM |
| CCn1c(-c2cccnc2[C@H](C)OC)c2c3cc(ccc31)-c1cccc(c1)C[C@H](NC(=O)[C@H](C(C)C)N(C)C(=O)[C@H]1CCN(S(=O)(=O)C=C(C)C)C1)C(=O)N1CCC[C@H](N1)C(=O)OCC(C)(C)C2 (atropisomer, axis not shown) [Example A307] | < 5 µM | > 1 µM |  |  |  |  |  |  |  |  | 1 to 10 µM | 1 to 10 µM | > 10 µM | > 10 µM | 1 to 10 µM | > 10 µM | > 10 µM | 1 to 10 µM |
| CC#CC(=O)N1CC[C@H](C(=O)N(C)[C@H](C(=O)N[C@H]2Cc3nc(cs3)-c3ccc4c(c3)c(c(-c3cccnc3[C@H](C)OC)n4CC)CC(C)(C)COC(=O)[C@@H]3CCCN(N3)C2=O)C2CCCC2)C1 (atropisomer, axis not shown) [Example A309] | < 5 µM | < 0.01 µM |  |  |  |  |  |  |  |  | 1 to 10 µM | 1 to 10 µM | 1 to 10 µM | > 10 µM | 1 to 10 µM | 1 to 10 µM | > 10 µM | 1 to 10 µM |
| CC#CC(=O)N1CC[C@H](C(=O)N(C)[C@H](C(=O)N[C@H]2Cc3cccc(c3)-c3ccc4c(c3)c(c(-c3cccnc3[C@H](C)OC)n4CC)CC(C)(C)COC(=O)[C@@H]3CCCN(N3)C2=O)C2CCCC2)C1 (atropisomer, axis not shown) [Example A310] | < 5 µM | 0.01 to 0.1 µM |  |  |  |  |  |  |  |  | 0.1 to 1 µM | 1 to 10 µM | 1 to 10 µM | > 10 µM | 1 to 10 µM | 1 to 10 µM | > 10 µM | 0.1 to 1 µM |
| C=CC(=O)N1C[C@@H]2[C@H](C1)[C@@H]2C(=O)N(C)[C@H](C(=O)N[C@H]1Cc2cc(O)cc(c2)-c2ccc3c(c2)c(c(-c2cccnc2[C@H](C)OC)n3CC)CC(C)(C)COC(=O)[C@@H]2CCCN(N2)C1=O)C(C)C (atropisomer, axis not shown) [Example A319] | < 5 µM | 0.01 to 0.1 µM |  |  |  |  |  |  |  |  | 0.01 to 0.1 µM | 0.01 to 0.1 µM | 0.01 to 0.1 µM | 0.01 to 0.1 µM | 0.01 to 0.1 µM | 0.01 to 0.1 µM | 0.01 to 0.1 µM | 0.01 to 0.1 µM |
| C=CC(=O)N1CC[C@H](C(=O)N(C)[C@H](C(=O)N[C@H]2Cc3cccc(c3)-c3ccc4c(c3)c(c(-c3cccnc3[C@H](C)OC)n4CC)CC(C)(C)COC(=O)[C@@H]3CCCN(N3)C2=O)C2CC2)C1 (atropisomer, axis not shown) [Example A320] | < 5 µM | 0.01 to 0.1 µM |  |  |  |  |  |  |  |  | 0.1 to 1 µM | 1 to 10 µM | 1 to 10 µM | > 10 µM | 1 to 10 µM | 1 to 10 µM | > 10 µM | 0.1 to 1 µM |
